What was measured:
HCV replicon cells = assay: HCV replicon FRET / luciferase assay; assay type: cell-based; conditions: Hepatitis C virus, 50% reduction in FRET or luciferase activity in HCV replicon cells; read-out: EC50
Method: FRET Assay Preparation. The HCV FRET screening assay was performed in 96-well cell culture plates. The FRET peptide (Anaspec, Inc.) (Taliani et al., Anal. Biochem. 1996, 240, 60-67) contains a fluorescence donor, EDANS, near one end of the peptide and an acceptor, DABCYL, near the other end. The fluorescence of the peptide is quenched by […] resonance energy transfer (RET) between the donor and the acceptor, but as the NS3 protease cleaves the peptide the products are released from RET quenching and the fluorescence of the donor becomes apparent. The assay reagent was made as follows: 5× cell Luciferase cell culture lysis reagent from Promega (#E153A) diluted to 1× with dH2O, NaCl added to 150 mM final, the FRET peptide diluted to 20 μM final from a 2 mM stock.
To prepare plates, HCV replicon cells, with or without a Renilla luciferase reporter gene, were trypsinized and plated in a 96-well plate with titrated test compounds added in columns 3 through 12; columns 1 and 2 contained a control compound (HCV control inhibitor), and the bottom row contained cells with DMSO only. The plates were then placed in a CO2 incubator at 37° C.
Assays. Subsequent to addition of the test compounds described above (FRET Assay Preparation), at various times the plate was removed and Alamar blue solution (Trek Diagnostics, #00-100) was added to measure cellular toxicity. After reading in a Cytoflour 4000 instrument (PE Biosystems), plates were rinsed with PBS and then used for FRET assay by the addition of 30 ul of the FRET peptide assay reagent described above (FRET Assay Preparation) per well. The plate was then placed into the Cytoflour 4000 instrument which had been set to 340 excite/490 emission, automatic mode for up to 20 cycles and the plate read in a kinetic mode. Typically, the signal to noise using an endpoint analysis after the reads was at least three-fold. Alternatively, after Alamar blue reading, plates were rinsed with PBS, then used for luciferase assay using the Promega Dual-Glo Luciferase Assay System or the Promega EnduRen Live Cell Substrate assay.
Compound analysis was performed by quantification of the relative HCV replicon inhibition and the relative cytotoxicity values. To calculate cytoxicity values, the average Alamar Blue fluorescence signals from the control wells were set as 100% non-toxic. The individual signals in each of the compound test wells were then divided by the average control signal and multiplied by 100% to determine […]. To calculate the HCV replicon inhibition values, an average background value was obtained from the two wells containing the highest amount of HCV control inhibitor at the end of the assay period. These numbers were similar to those obtained from naïve Huh-7 cells. The background numbers were then subtracted from the average signal obtained from the control wells and this number was used as 100% activity. The individual signals in each of the compound test wells were then divided by the averaged control values after background subtraction and multiplied by 100% to determine percent activity. EC50 values were calculated as the concentration which caused a 50% reduction in FRET or luciferase activity. The two numbers generated for the compound plate, percent cytoxicity and percent activity, were used to determine compounds of interest for further analysis.

HCV NS5B = biological target: T1, HCV NS5B (Hepatitis C virus genotype 1b, UniProt Q9WMX2); assay: HCV NS5B RdRp enzyme assay (standard / modified); assay type: biochemical; conditions: HCV RdRp genotype 1b; standard or modified assay not specified; read-out: IC50
T1 construct: The protein was expressed with an 18 amino acid C-terminal truncation to enhance the solubility; made in house; host or cells: E. coli BL21(DE3)
T1 sequence (Q9WMX2 2420-2992): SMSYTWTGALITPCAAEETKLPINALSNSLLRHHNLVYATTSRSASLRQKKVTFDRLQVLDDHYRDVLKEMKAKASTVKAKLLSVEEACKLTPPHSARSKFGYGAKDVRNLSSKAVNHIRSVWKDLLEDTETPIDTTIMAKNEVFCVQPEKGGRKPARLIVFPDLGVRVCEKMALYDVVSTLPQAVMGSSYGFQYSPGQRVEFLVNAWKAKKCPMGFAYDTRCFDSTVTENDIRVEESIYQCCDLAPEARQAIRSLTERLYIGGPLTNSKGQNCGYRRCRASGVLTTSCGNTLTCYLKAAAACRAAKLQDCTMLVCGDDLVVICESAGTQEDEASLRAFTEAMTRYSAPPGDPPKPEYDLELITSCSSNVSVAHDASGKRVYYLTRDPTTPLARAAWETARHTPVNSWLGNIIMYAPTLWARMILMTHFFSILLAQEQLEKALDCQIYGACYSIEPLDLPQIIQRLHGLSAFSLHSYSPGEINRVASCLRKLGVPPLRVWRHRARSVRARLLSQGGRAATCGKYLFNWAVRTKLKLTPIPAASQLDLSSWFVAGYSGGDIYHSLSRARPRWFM
Method: HCV NS5B RdRp cloning, expression, and purification. The cDNA encoding the NS5B protein of HCV, genotype 1b, was cloned into the pET21a expression vector. The protein was expressed with an 18 amino acid C-terminal truncation to enhance the solubility. The E. coli competent cell line BL21(DE3) was used for expression of the protein. Cultures were grown at 37° C. for ˜4 hours until the cultures reached an optical density of 2.0 at 600 nm. The cultures were cooled to 20° C. and induced with 1 mM IPTG. Fresh ampicillin was added to a final concentration of 50 μg/ml and the cells were grown overnight at 20° C.
Cell pellets (3 L) were lysed for purification to yield 15-24 mgs of purified NS5B. The lysis buffer consisted of 20 mM Tris-HCl, pH 7.4, 500 mM NaCl, 0.5% triton X-100, 1 mM DTT, 1 mM EDTA, 20% glycerol, 0.5 mg/ml lysozyme, 10 mM MgCl2, 15 ug/ml deoxyribonuclease I, and Complete TM protease inhibitor tablets (Roche). After addition of the lysis buffer, frozen cell pellets were resuspended using a tissue homogenizer. To reduce the viscosity of the sample, aliquots of the lysate were sonicated on ice using a microtip attached to a Branson sonicator. The sonicated lysate was centrifuged at 100,000×g for 1 hr at 4° C. and filtered through a 0.2 μm filter unit (Corning).
The protein was purified using two sequential chromatography steps: Heparin sepharose CL-6B and polyU sepharose 4B (Pharmacia). The chromatography buffers were identical to the lysis buffer but contained no lysozyme, deoxyribonuclease I, MgCl2 or protease inhibitor and the NaCl concentration of the buffer was adjusted according to the requirements for charging the protein onto the column. Each column was eluted with a NaCl gradient which varied in length from 5-50 column volumes depending on the column type. After the final chromatography step, the resulting purity of the enzyme is >90% based on SDS-PAGE analysis. The enzyme was aliquoted and stored at −80° C.
Standard HCV NS5B RdRp enzyme assay. HCV RdRp genotype 1b assays were run in a final volume of 60 μl in 96 well plates (Corning 3600). The assay buffer is composed of 20 mM Hepes, pH 7.5, 2.5 mM KCl, 2.5 mM MgCl2, 1 mM DTT, 1.6 U RNAse inhibitor (Promega N2515), 0.01 mg/ml BSA (Sigma B6917), and 2% glycerol. All compounds were serially diluted (3-fold) in DMSO and diluted further in water such that the final concentration of DMSO in the assay was 2%. HCV RdRp genotype 1b enzyme was used at a final concentration of 28 nM. A polyA template was used at 6 nM, and a biotinylated oligo-dT12 primer was used at 180 nM final concentration. Template was obtained commercially (Amersham 27-4110). Biotinylated primer was prepared by Sigma Genosys. 3H-UTP was used at 0.6 μCi (0.29 μM total UTP). Reactions were initiated by the addition of enzyme, incubated at 30 ° C. for 60 min, and stopped by adding 25 μl of 50 mM EDTA containing SPA beads (4 μg/μl, Amersham RPNQ 0007). Plates were read on a Packard Top Count NXT after >1 hr incubation at room temperature.
Modified HCV NS5B RdRp enzyme assay. A modified enzyme assay was performed essentially as described for the standard enzyme assay except for the following: The biotinylated oligo dT12 primer was precaptured on streptavidin-coated SPA beads by mixing primer and beads in assay buffer and incubating at room temperature for one hour. Unbound primer was removed after centrifugation. The primer-bound beads were resuspended in 20 mM Hepes buffer, pH 7.5 and used in the assay at final concentrations of 20 nM primer and 0.67 μg/μl beads. Order of addition in the assay: enzyme (1.75 nM) was added to diluted compound followed by the addition of a mixture of template (0.36 nM), 3H-UTP (0.6 μCi, 0.29 μM), and primer-bound beads, to initiate the reaction; concentrations given are final. Reactions were allowed to proceed for 4 hours at 30° C.
IC50 values for compounds were determined using seven different [I]. […]

SMILES	EC50 (HCV replicon cells) [nM]	IC50 (HCV NS5B) [nM]
COc1ccc2c(c1)C1CC1(C(=O)N1C[C@]3(C)CN(C)C[C@](C)(C1)C3O)Cn1c-2c(C2CCCCC2)c2ccc(C(=O)NS(=O)(=O)N(C)C)cc21 (stereo partly drawn)	2.4 to 500	2.4 to 500
COc1ccc2c(c1)C1CC1(C(=O)N1[C@@H]3C[C@H]1CN(Cc1ccccc1)C3)Cn1c-2c(C2CCCCC2)c2ccc(C(=O)NS(=O)(=O)N(C)C)cc21 (stereo partly drawn)	2.4 to 500	2.4 to 500
COc1ccc2c(c1)C1CC1(C(=O)N1CC3COCC(C1)N3Cc1ccccc1)Cn1c-2c(C2CCCCC2)c2ccc(C(=O)NS(=O)(=O)N(C)C)cc21 (stereo not drawn)	2.4 to 500	2.4 to 500
COc1ccc2c(c1)C1CC1(C(=O)N1CC3CN(C)CC(C1)N3C)Cn1c-2c(C2CCCCC2)c2ccc(C(=O)NS(=O)(=O)N(C)C)cc21 (stereo not drawn)	2.4 to 500	2.4 to 500
COc1ccc2c(c1)C1CC1(C(=O)N1CC3CN(C)CC(C1)N3C(C)=O)Cn1c-2c(C2CCCCC2)c2ccc(C(=O)NS(=O)(=O)N(C)C)cc21 (stereo not drawn)	2.4 to 500	2.4 to 500
COc1ccc2c(c1)C1CC1(C(=O)N1C3CN(C)CC1CN(Cc1ccccc1)C3)Cn1c-2c(C2CCCCC2)c2ccc(C(=O)NS(=O)(=O)N(C)C)cc21 (stereo not drawn)	2.4 to 500	2.4 to 500
COc1ccc2c(c1)[C@@H]1C[C@]1(C(=O)N1C3CC1CN(C)C3)Cn1c-2c(C2CCCCC2)c2ccc(C(=O)NS(=O)(=O)C(C)C)cc21	2.4 to 500	2.4 to 500
CCN1CC2CC(C1)N2C(=O)[C@]12C[C@H]1c1cc(OC)ccc1-c1c(C3CCCCC3)c3ccc(C(=O)NS(=O)(=O)N(C)C)cc3n1C2	2.4 to 500	2.4 to 500
CCCS(=O)(=O)NC(=O)c1ccc2c(C3CCCCC3)c3n(c2c1)CC1(C(=O)N2C4CC2CN(C)C4)CC1c1cc(OC)ccc1-3 (stereo not drawn)	2.4 to 500	2.4 to 500
CCN1CC2CC(C1)N2C(=O)C12CC1c1cc(OC)ccc1-c1c(C3CCCCC3)c3ccc(C(=O)NS(=O)(=O)C(C)C)cc3n1C2 (stereo not drawn)	2.4 to 500	2.4 to 500
COc1ccc2c(c1)C1CC1(C(=O)N1C3CN(C)CC1CN(C(C)=O)C3)Cn1c-2c(C2CCCCC2)c2ccc(C(=O)NS(=O)(=O)N(C)C)cc21 (stereo not drawn)	2.4 to 500	2.4 to 500
COc1ccc2c(c1)C1CC1(C(=O)N1C3CN(C)CC1CN(C)C3)Cn1c-2c(C2CCCCC2)c2ccc(C(=O)NS(=O)(=O)N(C)C)cc21 (stereo not drawn)	2.4 to 500	2.4 to 500
COc1ccc2c(c1)C1CC1(C(=O)N1C3CN(C)CC1CN(C(C)C)C3)Cn1c-2c(C2CCCCC2)c2ccc(C(=O)NS(=O)(=O)N(C)C)cc21 (stereo not drawn)	2.4 to 500	2.4 to 500
CCC(C)S(=O)(=O)NC(=O)c1ccc2c(C3CCCCC3)c3n(c2c1)CC1(C(=O)N2C4COCC2COC4)CC1c1cc(OC)ccc1-3 (stereo not drawn)	2.4 to 500	2.4 to 500
COc1ccc2c(c1)C1CC1(C(=O)N1C3CC1CN(C)C3)Cn1c-2c(C2CCCCC2)c2ccc(C(=O)NS(=O)(=O)CC(C)C)cc21 (stereo not drawn)	2.4 to 500	2.4 to 500
COc1ccc2c(c1)C1CC1(C(=O)N1C3CC1CN(C)C3)Cn1c-2c(C2CCCCC2)c2ccc(C(=O)NS(=O)(=O)C3CCC3)cc21 (stereo not drawn)	2.4 to 500	2.4 to 500
COc1ccc2c(c1)C1CC1(C(=O)N1C3CC1CN(C)C3)Cn1c-2c(C2CCCCC2)c2ccc(C(=O)NS(=O)(=O)C3CCCC3)cc21 (stereo not drawn)	2.4 to 500	2.4 to 500
COc1ccc2c(c1)C1CC1(C(=O)N1C3CC1CN(C)C3)Cn1c-2c(C2CCCCC2)c2ccc(C(=O)NS(=O)(=O)CC(C)(C)C)cc21 (stereo not drawn)	2.4 to 500	2.4 to 500
COc1ccc2c(c1)C1CC1(C(=O)N1C3CC1CN(C)C3)Cn1c-2c(C2CCCCC2)c2ccc(C(=O)NS(=O)(=O)C(C)(C)C)cc21 (stereo not drawn)	2.4 to 500	2.4 to 500
CCC(C)S(=O)(=O)NC(=O)c1ccc2c(C3CCCCC3)c3n(c2c1)CC1(C(=O)N2C4CN(C)CC2CN(Cc2ccccc2)C4)CC1c1cc(OC)ccc1-3 (stereo not drawn)	2.4 to 500	2.4 to 500
CCC(C)S(=O)(=O)NC(=O)c1ccc2c(C3CCCCC3)c3n(c2c1)CC1(C(=O)N2C4CC2CN(Cc2ccccc2)C4)CC1c1cc(OC)ccc1-3 (stereo not drawn)	2.4 to 500	2.4 to 500
COc1ccc2c(c1)C1CC1(C(=O)N1C3CC1CN(Cc1ccccc1)C3)Cn1c-2c(C2CCCCC2)c2ccc(C(=O)NS(=O)(=O)CC(C)C)cc21 (stereo not drawn)	2.4 to 500	2.4 to 500
COc1ccc2c(c1)C1CC1(C(=O)N1C3CC1CN(Cc1ccccc1)C3)Cn1c-2c(C2CCCCC2)c2ccc(C(=O)NS(=O)(=O)C3CCCC3)cc21 (stereo not drawn)	2.4 to 500	2.4 to 500
COc1ccc2c(c1)C1CC1(C(=O)N1C3CC1CN(Cc1ccccc1)C3)Cn1c-2c(C2CCCCC2)c2ccc(C(=O)NS(=O)(=O)C3CCCCC3)cc21 (stereo not drawn)	500 to 5000	2.4 to 500
